Laboratory results from US20210207188A1, “BETA-LACTAM COMPOUNDS AND METHODS OF USE THEREOF” (priority 2018, published 2021).

Key:
[1] = tested on: beta-lactamases, including NDM-1, IMP-1, VIM-2, KPC-2, OXA-48, AmpC, and TEM; assay: Hydrolysis of nitrocefin by beta-lactamases, absorbance at 485 nm; type: biochemical; conditions: nitrocefin 50 μM
Procedure: (§1) Recombinant his-tagged beta-lactamases, including NDM-1, IMP-1, KPC-2, VIM-2 and OXA-48 were overexpressed in Escherichia coli. The enzymes were purified using HisTrap Ni-NTA columns. AmpC and TEM were purchased from commercial sources.
The enzymatic activity of these beta-lactamases in hydrolysing beta-lactam compounds was tested using nitrocefin as a probe. Nitrocefin (50 μM) dissolved in phosphate buffer (pH=7.4) was mixed with each purified beta-lactamase. Once hydrolyzed, nitrocefin underwent a rapid color change from yellow to red. The hydrolysis process of nitrocefin was monitored by measuring the absorbance at 485 nm with a Molecular Device SpectraMax® Paradigm® Multi-Mode Microplate Reader.
(§2) Among the tested beta-lactamases, NDM-1, IMP-1, VIM-2, KPC-2 and OXA-48 are carbapenemases, whereas AmpC and TEM are not. Nitrocefin was used as a control to test the activity of the beta-lactamases because it can be hydrolyzed by a wide range of beta-lactamases.

[2] = target: T1, IMP-1 (Serratia marcescens, UniProt P52699); type: biochemical
T1 construct: His tag; made in house; host or cells: Escherichia coli
Procedure: as §1
(§3) The fluorescence-based activity assays were performed in phosphate-buffer saline. The concentration of some of the compounds were determined by boiling the compounds in PBS solution until fluorescence signal was saturated. The amount of released fluorophore was quantified via fluorescence spectroscopy by comparing to a corresponding calibration curve.

[3] = target: T2, KPC-2 (Klebsiella pneumoniae, UniProt Q9F663); type: biochemical
T2 construct: His tag; made in house; host or cells: Escherichia coli
Procedure: as §1, §3

[4] = target: T3, NDM-1 (Klebsiella pneumoniae, UniProt C7C422); type: biochemical
T3 construct: His tag; made in house; host or cells: Escherichia coli
Procedure: as §1, §3

[5] = target: T4, OXA-48 (Klebsiella pneumoniae, UniProt Q6XEC0); type: biochemical
T4 construct: His tag; made in house; host or cells: Escherichia coli
Procedure: as §1, §3

[6] = target: T5, VIM-2 (Escherichia coli, UniProt Q5U7L7); type: biochemical
T5 construct: His tag; made in house; host or cells: Escherichia coli
Procedure: as §1, §3

[7] = tested on: AmpC; assay: Activity of beta-lactamases towards probes (fluorescence-based activity assay), AmpC; type: biochemical; conditions: probe 2.0 μM (MCW-002 1.1 μM, MCW-011 0.5 μM), PBS
Procedure: as §1, §3

[8] = target: T6, TEM (Escherichia coli, UniProt P62593); assay: Activity of beta-lactamases towards probes (fluorescence-based activity assay), TEM; type: biochemical; conditions: probe 2.0 μM (MCW-002 1.1 μM, MCW-011 0.5 μM), PBS
T6 construct: purchased
Procedure: as §1, §3

[9] = tested on: beta-lactamases, including NDM-1, IMP-1, VIM-2, KPC-2, OXA-48, AmpC, and TEM; assay: Fluorescence-based activity assay, whole panel of tested beta-lactamases; type: biochemical; conditions: conclusion from fluorescence signals
Procedure: as §1, §3, §2

[10] = tested on: clinical isolates (CPE, Carbapenemase Producing Enterobacteriaceae, and Non CPE strains); assay: Selectivity of probes with clinical isolates in lysis buffer (visible light and UV light); type: cell-based; conditions: probe 10 μM
Procedure: The selectivity of some probes were evaluated with clinical isolates. The carbapenemases presence in the bacteria (CPE, i.e., Carbapenemase Producing Enterobacteriaceae) were verified by PCR (Polymerase Chain Reaction). 1 μL loop-full of each test bacterium from overnight-cultured LB agar plate were added to 100 μL PBS buffer with 0.5% CHAPS. The bacteria were vortexed to give a homogenious suspension and incubated for 15 min. To each of the bacteria-lysis buffer mixture (20 μL) were added quick test reagents (Probes (Final concentration=10 μM), CarbaNP solution A and CarbaNP solution B). CarbaNP solutions A and B were freshly prepared according to CLSI protocol, where solution A contains 10 mM zinc sulphate and phenol red buffer at pH=7.8±0.1 and solution B was a mixture of solution A with 3 mg/mL imipenem.

[11] = Michaelis-Menten kinetics, IMP-1
[12] = probe 2.0 μM (MCW-002 1.1 μM, MCW-011 0.5 μM), PBS
[13] = probe 2.0 μM (MCW-011 0.5 μM), PBS

T3 sequence (C7C422 29-270 limits assumed): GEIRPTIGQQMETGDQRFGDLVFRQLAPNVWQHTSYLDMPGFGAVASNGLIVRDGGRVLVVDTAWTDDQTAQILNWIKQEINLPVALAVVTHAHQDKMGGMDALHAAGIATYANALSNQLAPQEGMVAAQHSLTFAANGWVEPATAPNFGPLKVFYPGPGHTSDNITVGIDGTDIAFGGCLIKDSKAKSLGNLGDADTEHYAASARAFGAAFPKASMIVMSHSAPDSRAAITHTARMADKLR
T4 sequence (Q6XEC0 23-265 limits assumed): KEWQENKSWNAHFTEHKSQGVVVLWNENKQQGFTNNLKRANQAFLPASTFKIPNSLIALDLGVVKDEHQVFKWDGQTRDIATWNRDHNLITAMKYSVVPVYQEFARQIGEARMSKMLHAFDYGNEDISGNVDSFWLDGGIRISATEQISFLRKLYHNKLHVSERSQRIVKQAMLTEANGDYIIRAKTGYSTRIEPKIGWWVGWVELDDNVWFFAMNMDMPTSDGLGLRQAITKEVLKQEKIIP
T2 sequence (Q9F663 25-293 limits assumed): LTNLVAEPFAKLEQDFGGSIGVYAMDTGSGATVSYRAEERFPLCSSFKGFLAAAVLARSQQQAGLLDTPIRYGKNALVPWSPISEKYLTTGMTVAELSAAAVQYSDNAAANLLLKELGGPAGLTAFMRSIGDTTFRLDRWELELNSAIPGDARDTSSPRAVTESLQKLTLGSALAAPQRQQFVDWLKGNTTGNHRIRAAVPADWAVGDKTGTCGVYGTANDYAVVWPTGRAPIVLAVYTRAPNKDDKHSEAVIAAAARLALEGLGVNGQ
T1 sequence (P52699 19-246 limits assumed): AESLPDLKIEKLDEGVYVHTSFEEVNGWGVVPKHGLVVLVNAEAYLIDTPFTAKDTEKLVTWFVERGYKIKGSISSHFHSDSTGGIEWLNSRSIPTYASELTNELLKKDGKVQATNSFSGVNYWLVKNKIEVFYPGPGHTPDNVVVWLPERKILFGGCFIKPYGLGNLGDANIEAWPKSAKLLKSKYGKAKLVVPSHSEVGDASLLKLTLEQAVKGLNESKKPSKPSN
T6 sequence (P62593 24-286 limits assumed): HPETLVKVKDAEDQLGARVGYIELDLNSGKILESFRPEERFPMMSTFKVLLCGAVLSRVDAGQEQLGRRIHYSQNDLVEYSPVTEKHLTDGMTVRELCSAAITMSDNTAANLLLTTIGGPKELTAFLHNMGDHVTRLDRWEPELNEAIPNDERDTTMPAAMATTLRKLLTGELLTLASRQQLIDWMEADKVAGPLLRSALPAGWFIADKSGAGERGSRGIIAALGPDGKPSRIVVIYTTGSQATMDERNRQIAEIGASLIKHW

O=C(Cc1cccs1)N[C@@H]1C(=O)N2C(C(=O)O)=C(/C=C/c3ccc([N+](=O)[O-])cc3[N+](=O)[O-])CS[C@H]12 [nitrocefin]
hydrolysis of nitrocefin ([1]; all of the tested beta-lactamases): can hydrolyze nitrocefin | time until hydrolysis reactions complete (absorption at 485 nm plateaued) ([1]; except NDM-1): ≤ 30 min

COc1cc(COc2ccc3nc4ccc(=O)cc-4oc3c2)ccc1OC/C=C/C1=C(C(=O)O)N2C(=O)[C@H]([C@@H](C)O)[C@H]2C1 [MCW-001, (5R,6S)-6-((R)-1-hydroxyethyl)-3-((E)-3-(2-methoxy-4-(((3-oxo-3H-phenoxazin-7-yl)oxy)methyl)phenoxy)prop-1-en-1-yl)-7-oxo-1-azabicyclo[3.2.0]hept-2-ene-2-carboxylic acid]
3S/k (detection limit of the probe towards the carbapenemase) ([2]; IMP-1): 0.333 pM | time until hydrolysis reaction complete (fluorescent signal plateaued) ([2]; IMP-1, probe 2.0 μM): ≤ 2 min | fluorescence signal over time ([2]; IMP-1, probe 2.0 μM (MCW-002 1.1 μM, MCW-011 0.5 μM), PBS): pronounced increase in the fluorescent signal | fluorescence turn-on signal upon beta-lactam hydrolysis ([2]; MCW-001 1 μM, IMP-1 0.5 μM): more than 60 fold | absorption change over time ([2]; MCW-001 10 μM, IMP-1 2 μM): decreased in absorbance maximum at 480 nm and increase in absorbance maximum at 571 nm | Kcat [2, 11]: 33.9 ± 0.71 s⁻¹ | Km [2, 11]: 1.2 ± 0.08 µM | 3S/k (detection limit of the probe towards the carbapenemase) [3]: 4.43 pM | relative rate of hydrolysis reaction [3]: slower compared to the reactions with NDM-1 and IMP-1 | Kcat ([3]; Michaelis-Menten kinetics): 2.17 ± 0.07 s⁻¹ | Km ([3]; Michaelis-Menten kinetics): 0.93 ± 0.11 µM | time until hydrolysis reaction complete (fluorescent signal plateaued) ([3]; probe 2.0 μM): about 25 min | fluorescence signal over time [3, 12]: pronounced increase in the fluorescent signal | 3S/k (detection limit of the probe towards the carbapenemase) [4]: 0.327 pM | Kcat ([4]; Michaelis-Menten kinetics): 29.8 ± 0.81 s⁻¹ | Km ([4]; Michaelis-Menten kinetics): 1.66 ± 0.13 µM | time until hydrolysis reaction complete (fluorescent signal plateaued) ([4]; probe 2.0 μM): ≤ 2 min | fluorescence signal over time [4, 12]: pronounced increase in the fluorescent signal | 3S/k (detection limit of the probe towards the carbapenemase) [5]: 30.3 pM | Kcat ([5]; Michaelis-Menten kinetics): 2.83 ± 0.18 s⁻¹ | Km ([5]; Michaelis-Menten kinetics): 0.66 ± 0.08 µM | time until hydrolysis reaction complete (fluorescent signal plateaued) ([5]; probe 2.0 μM): > 30 min | fluorescence signal over time [5, 13]: pronounced increase in the fluorescent signal | 3S/k (detection limit of the probe towards the carbapenemase) [6]: 3.28 pM | relative rate of hydrolysis reaction [6]: slower compared to the reactions with NDM-1 and IMP-1 | Kcat ([6]; Michaelis-Menten kinetics): 1.96 ± 0.05 s⁻¹ | Km ([6]; Michaelis-Menten kinetics): 1.18 ± 0.1 µM | time until hydrolysis reaction complete (fluorescent signal plateaued) ([6]; probe 2.0 μM): about 25 min | fluorescence signal over time [6, 13]: pronounced increase in the fluorescent signal | fluorescence signal over time [7]: minimal changes in the fluorescent signal | fluorescence signal over time [8]: minimal changes in the fluorescent signal | specificity among the tested beta-lactamases [9]: specific for carbapenemases | signal with panel of clinical isolates ([10]; incubated for 15 min): observable colorimetric and fluorescence signal in CPE strains but not the Non CPE strains | signal with panel of clinical isolates ([10]; incubated for 120 min): observable colorimetric and fluorescence signal in CPE strains but not the Non CPE strains
